For experiment [1], the target named is T1, human SGLT1 (Homo sapiens, UniProt P13866).
T1 construct: Full-length human SGLT1 cDNA on pDream2.1 expression vector was obtained from GenScript Corporation; host or cells: COS-7 cells (American Type Culture Collection)
T1 sequence (P13866 1-664): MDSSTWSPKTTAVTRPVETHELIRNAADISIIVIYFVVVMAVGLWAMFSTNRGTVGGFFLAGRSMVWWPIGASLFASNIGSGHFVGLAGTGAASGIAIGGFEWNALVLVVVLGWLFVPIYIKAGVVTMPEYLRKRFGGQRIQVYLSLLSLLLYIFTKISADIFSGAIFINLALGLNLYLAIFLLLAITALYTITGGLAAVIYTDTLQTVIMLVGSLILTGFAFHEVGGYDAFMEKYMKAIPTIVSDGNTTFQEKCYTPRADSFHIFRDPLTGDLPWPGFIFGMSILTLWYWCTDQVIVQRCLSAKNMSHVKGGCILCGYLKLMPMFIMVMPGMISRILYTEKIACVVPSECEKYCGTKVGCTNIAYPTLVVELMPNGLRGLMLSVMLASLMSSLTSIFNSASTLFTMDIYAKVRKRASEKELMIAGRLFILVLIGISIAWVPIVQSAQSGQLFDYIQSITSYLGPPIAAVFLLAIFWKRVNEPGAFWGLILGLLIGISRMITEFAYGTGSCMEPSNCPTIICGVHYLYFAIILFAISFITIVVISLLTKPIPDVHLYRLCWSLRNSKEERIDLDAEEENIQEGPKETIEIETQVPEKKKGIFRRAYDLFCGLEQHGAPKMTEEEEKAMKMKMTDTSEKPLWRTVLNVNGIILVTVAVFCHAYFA
The experiment can be described thus: Methyl-α-D-[U-14C]glucopyranoside uptake assay, COS-7 cells expressing human SGLT1. The experiment is classed as cell-based. The note with it: COS-7 cells expressing human SGLT1, 2 h incubation. The protocol: Full-length human SGLT1 cDNA on pDream2.1 expression vector was obtained from GenScript Corporation and propagated in Escherichia coli strain DH5α using Luria-Bertani (LB) medium containing ampicillin. Plasmid DNA was isolated using the QIAGEN Plasmid Midi Kit (QIAGEN Inc.). […] Transfected cells were stored in DMEM containing 10% dimethyl sulfoxide (DMSO) at −80° C.
(§1) Cells expressing SGLT1 or SGLT2 were seeded on 96-well ScintiPlate scintillating plates (PerkinElmer, Inc.) in DMEM containing 10% FBS (1×10^5 cells per well in 100 μL medium) incubated at 37° C. under 5% CO2 for 48 h prior to the assay. Cells were washed twice with 150 μL of either sodium buffer (137 mM NaCl, 5.4 mM KCl, 2.8 mM CaCl2, 1.2 mM MgCl2, 10 mM tris(hydroxymethyl)aminomethane/N2-hydroxyethylpiperazine-N′-ethanesulfonic acid [Tris/Hepes], pH 7.2) or sodium-free buffer (137 mM N-methyl-glucamine, 5.4 mM KCl, 2.8 mM CaCl2, 1.2 mM MgCl2, 10 mM Tris/Hepes, pH 7.2). Test compound in 50 μL each of sodium or sodium-free buffer containing 40 μCi/L methyl-α-D-[U-^14C]glucopyranoside (Amersham Biosciences/GE Healthcare), either with (symbols in parentheses) or without (symbols without parentheses) 25% human serum, was added per well of a 96-well plate and incubated at 37° C. with shaking for either 2 h (SGLT1 assay) or 1.5 h (SGLT2 assay). Cells were washed twice with 150 μL of wash buffer (137 mM N-methylglucamine, 10 mM Tris/Hepes, pH 7.2) and methyl-α-D-[U-^14C]glucopyranoside uptake was quantitated using a TopCount scintillation counter (PerkinElmer, Inc.). Sodium-dependent glucopyranoside uptake was measured by subtracting the values obtained with sodium-free buffer from those obtained using sodium buffer (average of triplicate determinations).

In experiment [2] the target is T2, human SGLT2 (Homo sapiens, UniProt P31639).
T2 construct: A full-length cDNA clone expressing human SGLT2 (GenScript Corporation) was subcloned
T2 sequence (P31639 1-672): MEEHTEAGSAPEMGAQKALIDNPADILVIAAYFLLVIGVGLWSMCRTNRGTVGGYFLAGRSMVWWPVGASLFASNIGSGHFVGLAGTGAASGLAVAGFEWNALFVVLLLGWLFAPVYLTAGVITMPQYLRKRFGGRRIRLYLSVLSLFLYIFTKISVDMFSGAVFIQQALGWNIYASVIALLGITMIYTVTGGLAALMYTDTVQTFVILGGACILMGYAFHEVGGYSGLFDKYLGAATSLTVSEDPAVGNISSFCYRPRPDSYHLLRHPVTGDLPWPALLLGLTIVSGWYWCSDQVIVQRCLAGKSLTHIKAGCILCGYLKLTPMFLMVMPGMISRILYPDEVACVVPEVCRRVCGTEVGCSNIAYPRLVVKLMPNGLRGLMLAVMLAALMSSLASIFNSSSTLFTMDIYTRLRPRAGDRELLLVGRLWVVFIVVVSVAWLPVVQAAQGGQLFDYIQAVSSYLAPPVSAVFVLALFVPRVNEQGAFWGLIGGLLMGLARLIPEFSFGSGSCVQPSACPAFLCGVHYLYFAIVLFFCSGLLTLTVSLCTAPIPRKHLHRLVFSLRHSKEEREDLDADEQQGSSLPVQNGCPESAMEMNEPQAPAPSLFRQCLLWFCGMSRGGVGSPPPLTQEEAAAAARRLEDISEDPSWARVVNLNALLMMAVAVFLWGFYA
In words: Methyl-α-D-[U-14C]glucopyranoside uptake assay, cells stably expressing human SGLT2. It is filed as cell-based. The following applies: HEK293.ETN cells expressing human SGLT2, 1.5 h incubation.
Excerpt: A full-length cDNA clone expressing human SGLT2 (GenScript Corporation) was subcloned into […] and Not I sites of pEAK15 expression vector. Clones harboring the cDNA inserts were identified by restriction analysis.
Plasmid containing human SGLT2 was linearized with Nsi I and purified by agarose gel electrophoresis. Using Lipofectamine 2000 Transfection Reagent (Invitrogen Corporation), DNA was transfected into HEK293.ETN cells and cultured in Dulbecco's Modified Eagle Medium (DMEM) containing 10% fetal bovine serum (FBS) at 37° C. under 5% CO2 for 24 h. Transfectants were selected in the same growth medium supplemented with puromycin (Invitrogen Corporation) for two weeks. Puromycin-resistant cells were recovered and seeded on a fresh 96-well plate (single cell per well) and cultured in the presence of puromycin until cells became confluent. Puromycin-resistant clones were evaluated for SGLT2 activity in the methyl-α-D-[U-^14C]glucopyranoside uptake assay described below.
as §1

Where [3] appears, read: with 25% human serum (symbols in parentheses).
Where [4] appears, read: without human serum (symbols without parentheses).

`C=CCOCc1cc(Cl)c(Cc2ccc(OCC=C)cc2)cc1[C@@H]1O[C@H](CO)[C@@H](O)[C@H](O)[C@H]1O` [Compound BB, (2S,3R,4R,5S,6R)-2-(5-(4-(allyloxy)benzyl)-2-(allyloxymethyl)-4-chlorophenyl)-6-(hydroxymethyl)tetrahydro-2H-pyran-3,4,5-triol]: the IC50 (as a rule, the concentration that inhibits the measured activity by half) is greater than 10000 nM in experiment [1] (setting [3]) and less than 1000 nM in experiment [2] (setting [3]).

With `CC#CCOCc1cc(Cl)c(Cc2ccc(O)cc2)cc1[C@@H]1O[C@H](CO)[C@@H](O)[C@H](O)[C@H]1O` [Compound BC, (2S,3R,4R,5S,6R)-2-(2-((but-2-ynyloxy)methyl)-4-chloro-5-(4-hydroxybenzyl)phenyl)-6-(hydroxymethyl)tetrahydro-2H-pyran-3,4,5-triol], the IC50 in experiment [1] (setting [3]) is greater than 10000 nM; in experiment [2] (setting [3]) it was less than 1000 nM.

Take `C#CCOCc1cc(Cl)c(Cc2ccc(CC)cc2)cc1[C@@H]1O[C@H](COC(C)=O)[C@@H](O)[C@H](O)[C@H]1O` [Compound BD, ((2R,3S,4R,5R,6S)-6-(4-chloro-5-(4-ethylbenzyl)-2-((prop-2-ynyloxy)methyl)phenyl)-3,4,5-trihydroxytetrahydro-2H-pyran-2-yl)methyl acetate]: the half-maximal inhibitory concentration (IC50) in experiment [1] (setting [4]) was greater than 10000 nM; in experiment [2] (setting [4]), less than 1000 nM.

As for `CC#CCOCCOc1cc(Cl)c(Cc2ccc(CC)cc2)cc1[C@@H]1O[C@H](CO)[C@@H](O)[C@H](O)[C@H]1O` [Compound BF, (2S,3R,4R,5S,6R)-2-(2-(2-(but-2-ynyloxy)ethoxy)-4-chloro-5-(4-ethylbenzyl)phenyl)-6-(hydroxymethyl)tetrahydro-2H-pyran-3,4,5-triol], the 50% inhibitory concentration (IC50) in experiment [1] (setting [3]) was greater than 10000 nM; in experiment [2] (setting [3]), less than 1000 nM.

As for `CCc1ccc(Cc2cc([C@@H]3O[C@H](CO)[C@@H](O)[C@H](O)[C@H]3O)c(OCCOC3CCCC3)cc2Cl)cc1` [Compound BG, (2S,3R,4R,5S,6R)-2-(4-chloro-2-(2-(cyclopentyloxy)ethoxy)-5-(4-ethylbenzyl)phenyl)-6-(hydroxymethyl)tetrahydro-2H-pyran-3,4,5-triol], the IC50 in experiment [1] (setting [3]) was greater than 10000 nM; in experiment [2] (setting [3]), less than 1000 nM.

Regarding `CCOc1ccc(Cc2cc([C@@H]3O[C@H](CO)[C@@H](O)[C@H](O)[C@H]3O)c(CCOCCF)cc2Cl)cc1` [Compound BH, (2S,3R,4R,5S,6R)-2-(4-chloro-5-(4-ethoxybenzyl)-2-(2-(2-fluoroethoxy)ethyl)phenyl)-6-(hydroxymethyl)tetrahydro-2H-pyran-3,4,5-triol], the IC50 in experiment [1] (setting [3]) is 1000 to 10000 nM; in experiment [2] (setting [3]) it was less than 1000 nM.

Regarding `CC#CCOCCCc1cc(Cl)c(Cc2ccc(OCC)cc2)cc1[C@@H]1O[C@H](CO)[C@@H](O)[C@H](O)[C@H]1O` [Compound BO, (2S,3R,4R,5S,6R)-2-(2-(3-(but-2-ynyloxy)propyl)-4-chloro-5-(4-ethoxybenzyl)phenyl)-6-(hydroxymethyl)tetrahydro-2H-pyran-3,4,5-triol], the IC50 was greater than 10000 nM in experiment [1] (setting [3]) and less than 1000 nM in experiment [2] (setting [3]).

As to `CCc1ccc(Cc2cc([C@@H]3O[C@H](CO)[C@@H](O)[C@H](O)[C@H]3O)c(OCCOC(F)(F)F)cc2Cl)cc1` [Compound BQ, (2S,3R,4R,5S,6R)-2-(4-chloro-5-(4-ethylbenzyl)-2-(2-(trifluoromethoxy)ethoxy)phenyl)-6-(hydroxymethyl)tetrahydro-2H-pyran-3,4,5-triol], the values for the IC50 in experiment [1] (setting [3]) and in experiment [2] (setting [3]) were greater than 10000 nM and less than 1000 nM, respectively.

`CCc1ccc(Cc2cc([C@@H]3O[C@H](CO)[C@@H](O)[C@H](O)[C@H]3O)c(OCCOCC(F)(F)F)cc2Cl)cc1` [Compound BS, (2S,3R,4R,5S,6R)-2-(4-chloro-5-(4-ethylbenzyl)-2-(2-(2,2,2-trifluoroethoxy)ethoxy)phenyl)-6-(hydroxymethyl)tetrahydro-2H-pyran-3,4,5-triol]: the values for the IC50 in experiment [1] (setting [3]) and in experiment [2] (setting [3]) were greater than 10000 nM and less than 1000 nM, respectively.

With `CCc1ccc(Cc2cc([C@@H]3O[C@H](CO)[C@@H](O)[C@H](O)[C@H]3O)c(COCCF)cc2Cl)cc1` [Compound BZ, (2S,3R,4R,5S,6R)-2-(4-chloro-5-(4-ethylbenzyl)-2-((2-fluoroethoxy)methyl)phenyl)-6-(hydroxymethyl)tetrahydro-2H-pyran-3,4,5-triol], the concentration for half-maximal inhibition (IC50) in experiment [1] (setting [4]) was greater than 10000 nM; in experiment [2] (setting [4]), less than 1000 nM.

As to `CCc1ccc(Cc2cc([C@@H]3O[C@H](CO)[C@@H](O)[C@H](O)[C@H]3O)c(COCC(C)(F)F)cc2Cl)cc1` [Compound CB, (2S,3R,4R,5S,6R)-2-(4-chloro-2-((2,2-difluoropropoxy)methyl)-5-(4-ethylbenzyl)phenyl)-6-(hydroxymethyl)tetrahydro-2H-pyran-3,4,5-triol], the IC50 in experiment [1] (setting [4]) is greater than 10000 nM; in experiment [2] (setting [4]) it was less than 1000 nM.

For the molecule `C#CCOCc1cc(Cl)c(Cc2ccc(OCC)cc2)cc1[C@@H]1O[C@H](CO)[C@@H](O)[C@H](O)[C@H]1O` [Compound CC, (2S,3R,4R,5S,6R)-2-(4-chloro-5-(4-ethoxybenzyl)-2-((prop-2-ynyloxy)methyl)phenyl)-6-(hydroxymethyl)tetrahydro-2H-pyran-3,4,5-triol], the IC50 was greater than 10000 nM in experiment [1] (setting [3]) and less than 1000 nM in experiment [2] (setting [3]).

As to `C#CCOCc1cc(Cl)c(Cc2ccc(OCC)cc2)cc1[C@@H]1O[C@H](COC(C)=O)[C@@H](O)[C@H](O)[C@H]1O` [Compound CD, ((2R,3S,4R,5R,6S)-6-(4-chloro-5-(4-ethoxybenzyl)-2-((prop-2-ynyloxy)methyl)phenyl)-3,4,5-trihydroxytetrahydro-2H-pyran-2-yl)methyl acetate], the half-maximal inhibitory concentration (IC50) in experiment [1] (setting [3]) is greater than 10000 nM; in experiment [2] (setting [3]), less than 1000 nM.

On to `C=CCOCc1cc(Cl)c(Cc2ccc(CC)cc2)cc1[C@@H]1O[C@H](CO)[C@@H](O)[C@H](O)[C@H]1O` [Compound I, (2S,3R,4R,5S,6R)-2-(2-(allyloxymethyl)-4-chloro-5-(4-ethylbenzyl)phenyl)-6-(hydroxymethyl)tetrahydro-2H-pyran-3,4,5-triol], for which the IC50 is greater than 10000 nM in experiment [1] (setting [4]) and less than 1000 nM in experiment [2] (setting [4]).

For the origin of these results see patent US7838498B2, “Benzylic glycoside derivatives and methods of use” (Theracos, Inc., priority 2007, dated 2010).
